Laboratory results published in PMC6198510, “Switching Between Bicyclic and Linear Peptides — The Sulfhydryl-Specific Linker TPSMB Enables Reversible Cyclization of Peptides” (Frontiers in Chemistry, 2018).
Read-outs that look alike come from different tables or passages of the source. Starred links: 1 amine or outer side, 2 acyl side, 3 side chain; linkers in the order of their positions; H or OH if unused. Positions of bridges follow the written chain, without caps; N, C: chain ends. Residues, ends and D or L forms follow the SMILES beside them. Benzene(1,3,5-(CH2S)3) = c1c(CS[*:1])cc(CS[*:3])cc1CS[*:2]

Legend:
JNK3 [1] = target: T1, JNK3 (Homo sapiens, UniProt P53779); experiment: direct titration fluorescence polarization assay; format: binding; conditions: direct titration FP
T1 construct: 39-402 was performed as described in literature; made in house
T1 sequence (P53779 39-402 limits assumed): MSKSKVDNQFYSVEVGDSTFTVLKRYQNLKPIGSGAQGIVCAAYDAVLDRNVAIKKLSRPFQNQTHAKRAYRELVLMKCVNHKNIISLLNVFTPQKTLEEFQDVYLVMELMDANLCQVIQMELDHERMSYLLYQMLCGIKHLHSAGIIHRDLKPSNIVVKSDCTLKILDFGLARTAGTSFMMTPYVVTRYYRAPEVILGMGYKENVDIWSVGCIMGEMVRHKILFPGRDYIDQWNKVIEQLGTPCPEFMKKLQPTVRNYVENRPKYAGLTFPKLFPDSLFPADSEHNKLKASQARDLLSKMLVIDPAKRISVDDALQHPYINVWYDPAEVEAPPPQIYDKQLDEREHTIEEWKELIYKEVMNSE
Protocol: (§1) VII: Expression and Purification of JNK3
(§2) The expression and purification of JNK3339-402 was performed as described in literature. [Lange, A.; Günther, M.; Büttner, F. M.; Zimmermann, M. O.; Heidrich, J.; Hennig, S.; Zahn, S.; Schall, C.; Sievers-Engler, A.; Ansideri, F.; et al. Targeting the Gatekeeper MET146 of C-Jun N-Terminal Kinase 3 Induces a Bivalent Halogen/Chalcogen Bond. Journal of the American Chemical Society 2015, 137
(§3) VIII: Fluorescence polarization assay
Fluorescence polarization assays were performed in 96-wellplates (black, non-binding, Greiner bio-one). The measurements were performed in a CLARIOstar microplate reader (BMG Labtech, Ortenberg, Germany; excit. filter: 480 nm and an emiss. filter: 530 nm). Purified JNK3 was diluted in buffer (HEPES-Buffer, 25 mM) containing additional 0.1 mg/mL BSA. In the case of direct binding fluorescence polarization experiments, each protein concentration with a maximum concentration between 5 μM and 200 μM and a minimum concentration between 0.08 nM – 0.76 nM was measured in triplicates. The KD was obtained by curve fit based on eleven protein concentrations. […]
(§4) For all experiments DMSO (>99.5% (GC)) was […]
(§5) consistently used with a steady concentration of 5% (v/v). Before each measurement, the plates were shaked at 350 rpm for 30 min at room temperature on a plate shaker (Eppendorf MixMate). Before the measurement, the plates were incubated within the microplate reader for 2 min at 25°C and the focal height was adjusted to yield the optimal fluorescence intensity. Measured data was plotted and KD values were obtained by curve fitting of a standard four parameter logistic nonlinear regression model using the program Origin 9.1.
IX: Fluorescence polarization data
Table S2: Overview of the results obtained in direct titration fluorescence polarization assays.
SE = standard error from curve fit, SD = standard deviation from experiments 1-3. […]
Nucleic Acids Research, 37(Web Server issue), W441–W445], SE = standard error from curve fit. […]

JNK3 [2] = target: T1, JNK3; experiment: competitive fluorescence polarization assay (displacement of PIT0105006); format: binding; conditions: competitive FP
Protocol: as §1, §2, §3
Fluorescence polarization assays were performed in 96-wellplates (black, non-binding, Greiner bio-one). The measurements were performed in a CLARIOstar microplate reader (BMG Labtech, Ortenberg, Germany; excit. filter: 480 nm and an emiss. filter: 530 nm). Purified JNK3 was diluted in buffer (HEPES-Buffer, 25 mM) containing additional 0.1 mg/mL BSA. […]
The KD was obtained by curve fit based on eleven protein concentrations. For competitive binding fluorescence polarization experiments, sample concentrations between 200 μM and 10 nM were measured in triplicates. A steady concentration of 10 nM was used for JNK3 and of 5 nM for the fluorescein-labelled compound PIT0105006 (KD= 3.0 ± 0.2 nM). [Ansideri, F.; Lange, A; El-Gokha […]
A.; Boeckler F. M.; Koch, P. Fluorescence polarization-based assays for detecting compounds binding […]
503, 28-40.]Control measurements were performed with PIT0104002 (concentration between 10 μM […]
as §4, §5
IX: Fluorescence polarization data […]
Table S3: Overview of the results obtained in competitive fluorescence polarization assays. a Conversion of obtained IC50 mean values to KI were performed using a web-based application available at: http://sw16.im.med.umich.edu/software/calc_ki/ (19.07.2018) [Cer, R. Z., Mudunuri, U., Stephens, R., & Lebeda, F. J. (2009). IC50-to-Ki: a web-based tool for converting IC50 to Ki values for inhibitors of enzyme activity and ligand binding. Nucleic Acids Research, 37(Web Server issue), W441–W445], SE = standard error from curve fit. […]

[3] = fluorescein-labeled TPSMB-modified bicyclic peptide, JNK3 titrated, eleven protein concentrations in triplicates, 25 mM HEPES, 0.1 mg/mL BSA, 5% DMSO, 25°C, mean of experiments 1-3 (JK16, JK18: one experiment), read-out: Mean KD
[4] = converted from mean IC50 with web-based IC50-to-Ki tool, read-out: KI
[5] = unlabeled TPSMB bicyclic peptide displacing 5 nM PIT0105006 from 10 nM JNK3, 200 μM-10 nM in triplicates, 5% DMSO, 25°C, experiment 1, read-out: IC50 Exp. 1
[6] = unlabeled TPSMB bicyclic peptide, mean of experiments 1-2 (JK20: one experiment), read-out: Mean IC50

Structure (SMILES) | Kd (JNK3 [1]; [3]) | Ki (JNK3 [2]; [4]) | Ki (JNK3 [2]; single experiment with IC50 = 15.6 μM, read-out: KI (Figure 5B)) | IC50 (JNK3 [2]; [5]) | IC50 (JNK3 [2]; unlabeled TPSMB bicyclic peptide displacing 5 nM PIT0105006 from 10 nM JNK3, experiment 2, read-out: IC50 Exp. 2) | Kd (JNK3 [1]; fluorescein-labeled unmodified linear peptide, without cyclisation by TPSMB, curve fit (SE: 250 μM), read-out: KD of linear peptide) | IC50 (JNK3 [2]; [6])
CSCC[C@@H]1NC(=O)[C@@H]2CSSCc3cc(cc(c3)CSSC[C@@H](C(=O)NCC(N)=O)NC(=O)[C@H](Cc3c[nH]c4ccccc34)NC(=O)[C@H](CCCNC(=N)N)NC(=O)[C@H](Cc3ccc(O)cc3)NC(=O)[C@H](CC(=O)O)NC(=O)[C@H](Cc3ccccc3)NC1=O)CSSC[C@H](NC(=O)[C@H](C)N)C(=O)N[C@@H](CC(=O)O)C(=O)N[C@@H](CC(=O)O)C(=O)N[C@@H](CCC(N)=O)C(=O)N[C@@H](Cc1c[nH]c3ccccc13)C(=O)N[C@@H](CCC(=O)O)C(=O)N[C@@H](Cc1ccc(O)cc1)C(=O)N2 [JK1-TPSMB] (H-ACDDQWEYCMFDYRWCG-NH2; linker 2-9-16 via Benzene(1,3,5-(CH2S)3)) | 1.7 ± 0.8 µM | 6.6 µM | 3.6 µM | 15.6 µM | 41.3 µM | – | –
CSCC[C@H](NC(=O)[C@H](CS)NC(=O)[C@H](Cc1ccc(O)cc1)NC(=O)[C@H](CCC(=O)O)NC(=O)[C@H](Cc1c[nH]c2ccccc12)NC(=O)[C@H](CCC(N)=O)NC(=O)[C@H](CC(=O)O)NC(=O)[C@H](CC(=O)O)NC(=O)[C@H](CS)NC(=O)[C@H](C)N)C(=O)N[C@@H](Cc1ccccc1)C(=O)N[C@@H](CC(=O)O)C(=O)N[C@@H](Cc1ccc(O)cc1)C(=O)N[C@@H](CCCNC(=N)N)C(=O)N[C@@H](Cc1c[nH]c2ccccc12)C(=O)N[C@@H](CS)C(=O)NCC(N)=O [JK1] (H-ACDDQWEYCMFDYRWCG-NH2) | 1.7 ± 0.8 µM | 6.6 µM | – | – | – | ~390 µM | 28.4 µM
CC(C)C[C@@H]1NC(=O)[C@H](CC(=O)O)NC(=O)[C@H](CCC(=O)O)NC(=O)[C@@H]2CSSCc3cc(cc(c3)CSSC[C@@H](C(=O)NCC(N)=O)NC(=O)[C@H](CC(=O)O)NC(=O)[C@H](CC(=O)O)NC(=O)[C@H](CC(N)=O)NC1=O)CSSC[C@H](NC(=O)[C@H](C)N)C(=O)N[C@@H](Cc1ccccc1)C(=O)N[C@@H](Cc1c[nH]c3ccccc13)C(=O)N[C@@H](Cc1c[nH]c3ccccc13)C(=O)N[C@@H](Cc1ccccc1)C(=O)NCC(=O)N[C@@H](C)C(=O)N2 [JK10-TPSMB] (H-ACFWWFGACEDLNDDCG-NH2; linker 2-9-16 via Benzene(1,3,5-(CH2S)3)) | – | 5.5 µM | – | – | – | – | 23.6 µM
CC[C@H](C)[C@@H]1NC(=O)[C@H](CCC(=O)O)NC(=O)[C@H](CC(=O)O)NC(=O)[C@H](Cc2c[nH]cn2)NC(=O)[C@@H](NC(=O)[C@H](C)N)CSSCc2cc3cc(c2)CSSC[C@H](NC(=O)[C@H]([C@@H](C)O)NC(=O)[C@H](Cc2c[nH]c4ccccc24)NC1=O)C(=O)N[C@@H](C(C)C)C(=O)N[C@@H](Cc1ccccc1)C(=O)N[C@@H](Cc1c[nH]cn1)C(=O)N[C@@H](CC(=O)O)C(=O)N[C@@H](CCC(=O)O)C(=O)N[C@@H](Cc1ccccc1)C(=O)N[C@H](C(=O)NCC(N)=O)CSSC3 [JK20-TPSMB] (H-ACHDEIWTCVFHDEFCG-NH2; linker 2-9-16 via Benzene(1,3,5-(CH2S)3)) | – | 6.5 µM | – | 27.8 µM | – | – | 27.8 µM
